# Experimental data reported in US12281122B1, “PI3K inhibitors” (Cogent Biosciences, Inc., priority 2023, dated 2025).
# How the values were obtained:
# [1] = tested on: T47D (PI3Kα-H1047R) cell line; assay: HTRF phospho-AKT(S473) cell assay in T47D cells; type: cell-based, human; settings: Homo sapiens; HTRF phospho-AKT(S473), T47D (PI3Kα-H1047R) cells, 2 hours compound incubation
# In short: (§1)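 T47D (PI3Kα-H1047R; RPMI, 10% FBS, insulin) and SKBR3 (wild-type PI3Kα; McCoy's 5A, 10% FBS) cells treated 2 h at 37 °C with 12-point 1:3 dilutions, top 5 μM and 10 μM respectively, ≤0.5% DMSO. SKBR3 stimulated with 70 ng/ml PDGF-BB for the last 15 min; lysate pAKT(S473) by HTRF, IC50 from curves.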
# [2] = tested on: SKBR3 (PI3Kα-Wild Type) cell line; assay: HTRF phospho-AKT(S473) cell assay in SKBR3 cells; type: cell-based, human; settings: Homo sapiens, SK-BR-3; HTRF phospho-AKT(S473), SKBR3 (PI3Kα-Wild Type) cells, 2 hours compound incubation, PDGF-BB stimulated
# In short: as §1
compound,measurement,setting,value
"Cc1ccc(N2C[C@H]3C[C@@H]2CN3c2nc3c([C@@H](C)Nc4ccc(Cl)nc4C(=O)NS(C)(=O)=O)cc(C)cc3c(=O)n2C)nc1 [Compound 609, 6-chloro-3-(((R)-1-(3,6-dimethyl-2-((1R,4R)-5-(5-methylpyridin-2-yl)-2,5-diazabicyclo [2.2.1]heptan-2-yl)-4-oxo-3,4-dihydroquinazolin-8-yl)ethyl)amino)-N-(methylsulfonyl) picolinamide]",IC50,[1],500 to 1000 nM
same,IC50,[2],≥ 5 µM
"COc1ccc([C@H]2[C@@H]3CN(c4nc5c([C@@H](C)Nc6ccc(Cl)nc6C(=O)NS(C)(=O)=O)cc(C)cc5c(=O)n4C)C[C@@H]32)cn1 [Compound 610, 6-chloro-3-(((R)-1-(2-((1R,5S,6S)-6-(6-methoxypyridin-3-yl)-3-azabicyclo[3.1.0]hexan-3-yl)-3,6-dimethyl-4-oxo-3,4-dihydroquinazolin-8-yl)ethyl)amino)-N-(methylsulfonyl) picolinamide]",IC50,[1],< 250 nM
same,IC50,[2],≥ 5 µM
"COc1cc(O[C@H]2CCN(c3nc4c([C@@H](C)Nc5ccc(Cl)nc5C(=O)NS(C)(=O)=O)cc(C)cc4c(=O)n3C)C2)c(F)cn1 [Compound 611, 6-chloro-3-(((R)-1-(2-((S)-3-((5-fluoro-2-methoxypyridin-4-yl)oxy)pyrrolidin-1-yl)-3,6-dimethyl-4-oxo-3,4-dihydroquinazolin-8-yl)ethyl)amino)-N-(methylsulfonyl) picolinamide]",IC50,[1],250 to 500 nM
same,IC50,[2],≥ 5 µM
"Cc1cc([C@@H](C)Nc2ccc(Cl)nc2C(=O)NS(C)(=O)=O)c2nc(N3Cc4cnc(C)nc4C3)n(C)c(=O)c2c1 [Compound 612, (R)-6-chloro-3-((1-(3,6-dimethyl-2-(2-methyl-5,7-dihydro-6H-pyrrolo[3,4-d]pyrimidin-6-yl)-4-oxo-3,4-dihydroquinazolin-8-yl)ethyl)amino)-N-(methylsulfonyl) picolinamide]",IC50,[1],250 to 500 nM
same,IC50,[2],1 to 5 µM
"Cc1cnc(O[C@@H]2CCN(c3nc4c([C@@H](C)Nc5ccc(Cl)nc5C(=O)NS(C)(=O)=O)cc(C)cc4c(=O)n3C)C2)nc1 [Compound 613, 6-chloro-3-(((R)-1-(3,6-dimethyl-2-((R)-3-((5-methylpyrimidin-2-yl)oxy)pyrrolidin-1-yl)-4-oxo-3,4-dihydroquinazolin-8-yl)ethyl)amino)-N-(methylsulfonyl) picolinamide]",IC50,[1],< 250 nM
same,IC50,[2],1 to 5 µM
"CCn1c(N2CCC(c3nc(C)n(C)n3)CC2)nc2c([C@@H](C)Nc3ccc(Cl)nc3C(=O)NS(C)(=O)=O)cc(C)cc2c1=O [Compound 616, (R)-6-chloro-3-((1-(2-(4-(1,5-dimethyl-1H-1,2,4-triazol-3-yl)piperidin-1-yl)-3-ethyl-6-methyl-4-oxo-3,4-dihydroquinazolin-8-yl)ethyl)amino)-N-(methylsulfonyl) picolinamide]",IC50,[1],< 250 nM
same,IC50,[2],≥ 5 µM
"Cc1cc([C@@H](C)Nc2ccc(Cl)nc2C(=O)NS(C)(=O)=O)c2nc(N3CCN(c4cc(C)nc(C)n4)CC3)n(C)c(=O)c2c1 [Compound 617, (R)-6-chloro-3-((1-(2-(4-(2,6-dimethylpyrimidin-4-yl)piperazin-1-yl)-3,6-dimethyl-4-oxo-3,4-dihydroquinazolin-8-yl)ethyl)amino)-N-(methylsulfonyl) picolinamide]",IC50,[1],250 to 500 nM
same,IC50,[2],≥ 5 µM
"Cc1cc([C@@H](C)Nc2ccc(Cl)nc2C(=O)NS(C)(=O)=O)c2nc(N3C[C@@H]4[C@H](C3)[C@H]4c3cc4cccnn4n3)n(C)c(=O)c2c1 [Compound 620, 6-chloro-3-(((R)-1-(3,6-dimethyl-4-oxo-2-((1R,5S,6R)-6-(pyrazolo[1,5-b]pyridazin-2-yl)-3-azabicyclo[3.1.0]hexan-3-yl)-3,4-dihydroquinazolin-8-yl)ethyl)amino)-N-(methylsulfonyl) picolinamide]",IC50,[1],< 250 nM
same,IC50,[2],1 to 5 µM
"CCn1c(N2C[C@@H]3[C@H](C2)[C@H]3c2cn(C)nn2)nc2c([C@@H](C)Nc3ccc(Cl)nc3C(=O)NS(C)(=O)=O)cc(C)cc2c1=O [Compound 622, 6-chloro-3-(((R)-1-(3-ethyl-6-methyl-2-((1R,5S,6R)-6-(1-methyl-1H-1,2,3-triazol-4-yl)-3-azabicyclo[3.1.0]hexan-3-yl)-4-oxo-3,4-dihydroquinazolin-8-yl)ethyl)amino)-N-(methylsulfonyl) picolinamide]",IC50,[1],< 250 nM
same,IC50,[2],1 to 5 µM
"Cc1cc([C@@H](C)Nc2ccc(Cl)nc2C(=O)NS(C)(=O)=O)c2nc(N3C[C@@H]4C[C@H]3CN4c3ccc(F)cn3)n(C)c(=O)c2c1 [Compound 623, 6-chloro-3-(((R)-1-(2-((1S,4S)-5-(5-fluoropyridin-2-yl)-2,5-diazabicyclo [2.2.1]heptan-2-yl)-3,6-dimethyl-4-oxo-3,4-dihydroquinazolin-8-yl)ethyl)amino)-N-(methylsulfonyl) picolinamide]",IC50,[1],250 to 500 nM
same,IC50,[2],≥ 5 µM
"Cc1cc([C@@H](C)Nc2ccc(Cl)nc2C(=O)NS(C)(=O)=O)c2nc(N3C[C@H]4C[C@@H]3CN4c3nccnc3C)n(C)c(=O)c2c1 [Compound 624, 6-chloro-3-(((R)-1-(3,6-dimethyl-2-((1R,4R)-5-(3-methylpyrazin-2-yl)-2,5-diazabicyclo [2.2.1]heptan-2-yl)-4-oxo-3,4-dihydroquinazolin-8-yl)ethyl)amino)-N-(methylsulfonyl) picolinamide]",IC50,[1],250 to 500 nM
same,IC50,[2],≥ 5 µM
"Cc1cc([C@@H](C)Nc2ccc(Cl)nc2C(=O)NS(C)(=O)=O)c2nc(N3CCC(n4nncc4C)CC3)n(C)c(=O)c2c1 [Compound 626, (R)-6-chloro-3-((1-(3,6-dimethyl-2-(4-(5-methyl-1H-1,2,3-triazol-1-yl)piperidin-1-yl)-4-oxo-3,4-dihydroquinazolin-8-yl)ethyl)amino)-N-(methylsulfonyl) picolinamide]",IC50,[1],250 to 500 nM
same,IC50,[2],1 to 5 µM
"Cc1cc([C@@H](C)Nc2ccc(Cl)nc2C(=O)NS(C)(=O)=O)c2nc(N3CCc4nn(C(F)F)cc4C3)n(C)c(=O)c2c1 [Compound 627, (R)-6-chloro-3-((1-(2-(2-(difluoromethyl)-2,4,6,7-tetrahydro-5H-pyrazolo[4,3-c]pyridin-5-yl)-3,6-dimethyl-4-oxo-3,4-dihydroquinazolin-8-yl)ethyl)amino)-N-(methylsulfonyl) picolinamide]",IC50,[1],< 250 nM
same,IC50,[2],1 to 5 µM
"Cc1cc([C@@H](C)Nc2ccc(Cl)nc2C(=O)NS(=O)(=O)C2COC2)c2nc(N3Cc4cn(-c5ccccc5C)nc4C3)n(C)c(=O)c2c1 [Compound 628, (R)-6-chloro-3-((1-(3,6-dimethyl-4-oxo-2-(2-(o-tolyl)-2,6-dihydropyrrolo[3,4-c]pyrazol-5(4H)-yl)-3,4-dihydroquinazolin-8-yl)ethyl)amino)-N-(oxetan-3-ylsulfonyl)picolinamide]",IC50,[1],250 to 500 nM
same,IC50,[2],≥ 5 µM
"Cc1cc([C@@H](C)Nc2ccc(Cl)nc2C(=O)NS(C)(=O)=O)c2nc(N3CCC(c4nnc(C5CCC5)o4)CC3)n(C)c(=O)c2c1 [Compound 629, (R)-6-chloro-3-((1-(2-(4-(5-cyclobutyl-1,3,4-oxadiazol-2-yl)piperidin-1-yl)-3,6-dimethyl-4-oxo-3,4-dihydroquinazolin-8-yl)ethyl)amino)-N-(methylsulfonyl) picolinamide]",IC50,[1],< 250 nM
same,IC50,[2],1 to 5 µM
"Cc1cc([C@@H](C)Nc2ccc(Cl)nc2C(=O)NS(C)(=O)=O)c2nc(N3CCC(c4ncc(C(F)(F)F)cn4)CC3)n(C)c(=O)c2c1 [Compound 630, (R)-6-chloro-3-((1-(3,6-dimethyl-4-oxo-2-(4-(5-(trifluoromethyl)pyrimidin-2-yl)piperidin-1-yl)-3,4-dihydroquinazolin-8-yl)ethyl)amino)-N-(methylsulfonyl) picolinamide]",IC50,[1],500 to 1000 nM
same,IC50,[2],≥ 5 µM
"Cc1cc([C@@H](C)Nc2ccc(Cl)nc2C(=O)NS(C)(=O)=O)c2nc(N3CC[C@H](Oc4cnc(C)cn4)C3)n(C)c(=O)c2c1 [Compound 631, 6-chloro-3-(((R)-1-(3,6-dimethyl-2-((S)-3-((5-methylpyrazin-2-yl)oxy)pyrrolidin-1-yl)-4-oxo-3,4-dihydroquinazolin-8-yl)ethyl)amino)-N-(methylsulfonyl) picolinamide]",IC50,[1],< 250 nM
same,IC50,[2],1 to 5 µM
"Cc1cc([C@@H](C)Nc2ccc(Cl)nc2C(=O)NS(C)(=O)=O)c2nc(N3C[C@@H]4[C@H](C3)[C@H]4n3ncc(F)c3C)n(C)c(=O)c2c1 [Compound 632, 6-chloro-3-(((R)-1-(2-((1R,5S,6S)-6-(4-fluoro-5-methyl-1H-pyrazol-1-yl)-3-azabicyclo[3.1.0]hexan-3-yl)-3,6-dimethyl-4-oxo-3,4-dihydroquinazolin-8-yl)ethyl)amino)-N-(methylsulfonyl) picolinamide]",IC50,[1],250 to 500 nM
same,IC50,[2],1 to 5 µM
"Cc1cc([C@@H](C)Nc2ccc(Cl)nc2C(=O)NS(C)(=O)=O)c2nc(N3CCN(c4cc(C)n(C)n4)CC3)n(C)c(=O)c2c1 [Compound 634, (R)-6-chloro-3-((1-(2-(4-(1,5-dimethyl-1H-pyrazol-3-yl)piperazin-1-yl)-3,6-dimethyl-4-oxo-3,4-dihydroquinazolin-8-yl)ethyl)amino)-N-(methylsulfonyl) picolinamide]",IC50,[1],< 250 nM
same,IC50,[2],≥ 5 µM
"COc1ccc(N2CCN(c3nc4c([C@@H](C)Nc5ccc(Cl)nc5C(=O)NS(C)(=O)=O)cc(C)cc4c(=O)n3C)CC2)cn1 [Compound 635, (R)-6-chloro-3-((1-(2-(4-(6-methoxypyridin-3-yl)piperazin-1-yl)-3,6-dimethyl-4-oxo-3,4-dihydroquinazolin-8-yl)ethyl)amino)-N-(methylsulfonyl) picolinamide]",IC50,[1],250 to 500 nM
same,IC50,[2],1 to 5 µM
